# Test system: 292921-168-R-J2-PDC complex spheroid growth
# Test: Anticancer human tumor 292921-168-R-J2-PDC patient-derived pancreatic carcinoma cell line growth inhibition [AhR]
# Conditions: second compound 0.1 µM; first compound 0.316 µM; stronger effect = lower value
# Method in brief: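 Spheroids combined tumor cells with HUVEC endothelial cells and human MSCs as stroma. AhR antagonists were paired with standard or investigational drugs, each dosed in half-log steps down from near clinical Cmax, or from 10 microM where Cmax was unknown.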
# 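Also: spheroids exposed to compounds for seven days after three days of growth.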
row,SMILES,"viability, T/C [%]"
1,O=C(C=Cc1cccc(S(=O)(=O)Nc2ccccc2)c1)NO + Cc1cncc(-c2nc(NCCc3c[nH]c4ccccc34)c3ncn(C(C)C)c3n2)c1,46.1
2,O=C(c1cc(Cc2n[nH]c(=O)c3ccccc23)ccc1F)N1CCN(C(=O)C2CC2)CC1 + Cc1cncc(-c2nc(NCCc3c[nH]c4ccccc34)c3ncn(C(C)C)c3n2)c1,85.6

# Same assay, conditions: second compound 0.1 µM; first compound 1 µM; stronger effect = lower value
row,SMILES,"viability, T/C [%]"
1,COc1cc(Nc2ncc3c(n2)-c2ccc(Cl)cc2C(c2c(F)cccc2OC)=NC3)ccc1C(=O)O + Cc1cncc(-c2nc(NCCc3c[nH]c4ccccc34)c3ncn(C(C)C)c3n2)c1,45.6
2,Nc1ccccc1NC(=O)c1ccc(CNC(=O)OCc2cccnc2)cc1 + Cc1cncc(-c2nc(NCCc3c[nH]c4ccccc34)c3ncn(C(C)C)c3n2)c1,40.9
3,O=C(C=Cc1cccc(S(=O)(=O)Nc2ccccc2)c1)NO + Cc1cncc(-c2nc(NCCc3c[nH]c4ccccc34)c3ncn(C(C)C)c3n2)c1,41
4,O=C(c1cc(Cc2n[nH]c(=O)c3ccccc23)ccc1F)N1CCN(C(=O)C2CC2)CC1 + Cc1cncc(-c2nc(NCCc3c[nH]c4ccccc34)c3ncn(C(C)C)c3n2)c1,89.7

# Same assay, conditions: second compound 0.1 µM; first compound 3.16 µM; stronger effect = lower value
row,SMILES,"viability, T/C [%]"
1,COc1cc(Nc2ncc3c(n2)-c2ccc(Cl)cc2C(c2c(F)cccc2OC)=NC3)ccc1C(=O)O + Cc1cncc(-c2nc(NCCc3c[nH]c4ccccc34)c3ncn(C(C)C)c3n2)c1,46.1
2,Nc1ccccc1NC(=O)c1ccc(CNC(=O)OCc2cccnc2)cc1 + Cc1cncc(-c2nc(NCCc3c[nH]c4ccccc34)c3ncn(C(C)C)c3n2)c1,27.9
3,O=C(C=Cc1cccc(S(=O)(=O)Nc2ccccc2)c1)NO + Cc1cncc(-c2nc(NCCc3c[nH]c4ccccc34)c3ncn(C(C)C)c3n2)c1,36
4,O=C(c1cc(Cc2n[nH]c(=O)c3ccccc23)ccc1F)N1CCN(C(=O)C2CC2)CC1 + Cc1cncc(-c2nc(NCCc3c[nH]c4ccccc34)c3ncn(C(C)C)c3n2)c1,89.8

# Same assay, conditions: second compound 0.1 µM; first compound 10 µM; stronger effect = lower value
row,SMILES,"viability, T/C [%]"
1,COc1cc(Nc2ncc3c(n2)-c2ccc(Cl)cc2C(c2c(F)cccc2OC)=NC3)ccc1C(=O)O + Cc1cncc(-c2nc(NCCc3c[nH]c4ccccc34)c3ncn(C(C)C)c3n2)c1,33.5
2,Nc1ccccc1NC(=O)c1ccc(CNC(=O)OCc2cccnc2)cc1 + Cc1cncc(-c2nc(NCCc3c[nH]c4ccccc34)c3ncn(C(C)C)c3n2)c1,13.4
3,O=C(C=Cc1cccc(S(=O)(=O)Nc2ccccc2)c1)NO + Cc1cncc(-c2nc(NCCc3c[nH]c4ccccc34)c3ncn(C(C)C)c3n2)c1,3.84
4,O=C(c1cc(Cc2n[nH]c(=O)c3ccccc23)ccc1F)N1CCN(C(=O)C2CC2)CC1 + Cc1cncc(-c2nc(NCCc3c[nH]c4ccccc34)c3ncn(C(C)C)c3n2)c1,70.3

# Same assay, conditions: second compound 0.316 µM; first compound 0.000949 µM; stronger effect = lower value
row,SMILES,"viability, T/C [%]"
1,CC(C)CC(NC(=O)C(Cc1ccccc1)NC(=O)c1cnccn1)B(O)O (stereo not drawn) + Cc1cncc(-c2nc(NCCc3c[nH]c4ccccc34)c3ncn(C(C)C)c3n2)c1,89.7
2,CCc1c2c(nc3ccc(O)cc13)-c1cc3c(c(=O)n1C2)COC(=O)[C@]3(O)CC + Cc1cncc(-c2nc(NCCc3c[nH]c4ccccc34)c3ncn(C(C)C)c3n2)c1,64.3

# Same assay, conditions: second compound 0.316 µM; first compound 0.003 µM; stronger effect = lower value
row,SMILES,"viability, T/C [%]"
1,CC(C)CC(NC(=O)C(Cc1ccccc1)NC(=O)c1cnccn1)B(O)O (stereo not drawn) + Cc1cncc(-c2nc(NCCc3c[nH]c4ccccc34)c3ncn(C(C)C)c3n2)c1,99.3
2,CCc1c2c(nc3ccc(O)cc13)-c1cc3c(c(=O)n1C2)COC(=O)[C@]3(O)CC + Cc1cncc(-c2nc(NCCc3c[nH]c4ccccc34)c3ncn(C(C)C)c3n2)c1,50.4

# Same assay, conditions: second compound 0.316 µM; first compound 0.00949 µM; stronger effect = lower value
row,SMILES,"viability, T/C [%]"
1,CC(C)CC(NC(=O)C(Cc1ccccc1)NC(=O)c1cnccn1)B(O)O (stereo not drawn) + Cc1cncc(-c2nc(NCCc3c[nH]c4ccccc34)c3ncn(C(C)C)c3n2)c1,51.5
2,CCc1c2c(nc3ccc(O)cc13)-c1cc3c(c(=O)n1C2)COC(=O)[C@]3(O)CC + Cc1cncc(-c2nc(NCCc3c[nH]c4ccccc34)c3ncn(C(C)C)c3n2)c1,23.2

# Same assay, conditions: second compound 0.316 µM; first compound 0.03 µM; stronger effect = lower value
row,SMILES,"viability, T/C [%]"
1,CC(C)CC(NC(=O)C(Cc1ccccc1)NC(=O)c1cnccn1)B(O)O (stereo not drawn) + Cc1cncc(-c2nc(NCCc3c[nH]c4ccccc34)c3ncn(C(C)C)c3n2)c1,3.84
2,CCc1c2c(nc3ccc(O)cc13)-c1cc3c(c(=O)n1C2)COC(=O)[C@]3(O)CC + Cc1cncc(-c2nc(NCCc3c[nH]c4ccccc34)c3ncn(C(C)C)c3n2)c1,11.7

# Same assay, conditions: second compound 0.316 µM; first compound 0.0316 µM; stronger effect = lower value
row,SMILES,"viability, T/C [%]"
1,COc1cc(Nc2ncc3c(n2)-c2ccc(Cl)cc2C(c2c(F)cccc2OC)=NC3)ccc1C(=O)O + Cc1cncc(-c2nc(NCCc3c[nH]c4ccccc34)c3ncn(C(C)C)c3n2)c1,49.9
2,Nc1ccccc1NC(=O)c1ccc(CNC(=O)OCc2cccnc2)cc1 + Cc1cncc(-c2nc(NCCc3c[nH]c4ccccc34)c3ncn(C(C)C)c3n2)c1,68.2
3,O=C(C=Cc1cccc(S(=O)(=O)Nc2ccccc2)c1)NO + Cc1cncc(-c2nc(NCCc3c[nH]c4ccccc34)c3ncn(C(C)C)c3n2)c1,69.9
4,O=C(c1cc(Cc2n[nH]c(=O)c3ccccc23)ccc1F)N1CCN(C(=O)C2CC2)CC1 + Cc1cncc(-c2nc(NCCc3c[nH]c4ccccc34)c3ncn(C(C)C)c3n2)c1,91.6

# Same assay, conditions: second compound 0.316 µM; first compound 0.0949 µM; stronger effect = lower value
row,SMILES,"viability, T/C [%]"
1,CC(C)CC(NC(=O)C(Cc1ccccc1)NC(=O)c1cnccn1)B(O)O (stereo not drawn) + Cc1cncc(-c2nc(NCCc3c[nH]c4ccccc34)c3ncn(C(C)C)c3n2)c1,0.68
2,CCc1c2c(nc3ccc(O)cc13)-c1cc3c(c(=O)n1C2)COC(=O)[C@]3(O)CC + Cc1cncc(-c2nc(NCCc3c[nH]c4ccccc34)c3ncn(C(C)C)c3n2)c1,5.74

# Same assay, conditions: second compound 0.316 µM; first compound 0.1 µM; stronger effect = lower value
row,SMILES,"viability, T/C [%]"
1,COc1cc(Nc2ncc3c(n2)-c2ccc(Cl)cc2C(c2c(F)cccc2OC)=NC3)ccc1C(=O)O + Cc1cncc(-c2nc(NCCc3c[nH]c4ccccc34)c3ncn(C(C)C)c3n2)c1,43.3
2,Nc1ccccc1NC(=O)c1ccc(CNC(=O)OCc2cccnc2)cc1 + Cc1cncc(-c2nc(NCCc3c[nH]c4ccccc34)c3ncn(C(C)C)c3n2)c1,57
3,O=C(C=Cc1cccc(S(=O)(=O)Nc2ccccc2)c1)NO + Cc1cncc(-c2nc(NCCc3c[nH]c4ccccc34)c3ncn(C(C)C)c3n2)c1,61.4
4,O=C(c1cc(Cc2n[nH]c(=O)c3ccccc23)ccc1F)N1CCN(C(=O)C2CC2)CC1 + Cc1cncc(-c2nc(NCCc3c[nH]c4ccccc34)c3ncn(C(C)C)c3n2)c1,89.3

# Same assay, conditions: second compound 0.316 µM; first compound 0.3 µM; stronger effect = lower value
row,SMILES,"viability, T/C [%]"
1,CC(C)CC(NC(=O)C(Cc1ccccc1)NC(=O)c1cnccn1)B(O)O (stereo not drawn) + Cc1cncc(-c2nc(NCCc3c[nH]c4ccccc34)c3ncn(C(C)C)c3n2)c1,0.47
2,CCc1c2c(nc3ccc(O)cc13)-c1cc3c(c(=O)n1C2)COC(=O)[C@]3(O)CC + Cc1cncc(-c2nc(NCCc3c[nH]c4ccccc34)c3ncn(C(C)C)c3n2)c1,3.22

# Same assay, conditions: second compound 0.316 µM; first compound 0.316 µM; stronger effect = lower value
row,SMILES,"viability, T/C [%]"
1,COc1cc(Nc2ncc3c(n2)-c2ccc(Cl)cc2C(c2c(F)cccc2OC)=NC3)ccc1C(=O)O + Cc1cncc(-c2nc(NCCc3c[nH]c4ccccc34)c3ncn(C(C)C)c3n2)c1,52
2,Nc1ccccc1NC(=O)c1ccc(CNC(=O)OCc2cccnc2)cc1 + Cc1cncc(-c2nc(NCCc3c[nH]c4ccccc34)c3ncn(C(C)C)c3n2)c1,49.7
3,O=C(C=Cc1cccc(S(=O)(=O)Nc2ccccc2)c1)NO + Cc1cncc(-c2nc(NCCc3c[nH]c4ccccc34)c3ncn(C(C)C)c3n2)c1,50.9
4,O=C(c1cc(Cc2n[nH]c(=O)c3ccccc23)ccc1F)N1CCN(C(=O)C2CC2)CC1 + Cc1cncc(-c2nc(NCCc3c[nH]c4ccccc34)c3ncn(C(C)C)c3n2)c1,88.8

# Same assay, conditions: second compound 0.316 µM; first compound 1 µM; stronger effect = lower value
row,SMILES,"viability, T/C [%]"
1,COc1cc(Nc2ncc3c(n2)-c2ccc(Cl)cc2C(c2c(F)cccc2OC)=NC3)ccc1C(=O)O + Cc1cncc(-c2nc(NCCc3c[nH]c4ccccc34)c3ncn(C(C)C)c3n2)c1,45.9
2,Nc1ccccc1NC(=O)c1ccc(CNC(=O)OCc2cccnc2)cc1 + Cc1cncc(-c2nc(NCCc3c[nH]c4ccccc34)c3ncn(C(C)C)c3n2)c1,33.6
3,O=C(C=Cc1cccc(S(=O)(=O)Nc2ccccc2)c1)NO + Cc1cncc(-c2nc(NCCc3c[nH]c4ccccc34)c3ncn(C(C)C)c3n2)c1,39.9
4,O=C(c1cc(Cc2n[nH]c(=O)c3ccccc23)ccc1F)N1CCN(C(=O)C2CC2)CC1 + Cc1cncc(-c2nc(NCCc3c[nH]c4ccccc34)c3ncn(C(C)C)c3n2)c1,84.7

# Same assay, conditions: second compound 0.316 µM; first compound 3.16 µM; stronger effect = lower value
row,SMILES,"viability, T/C [%]"
1,COc1cc(Nc2ncc3c(n2)-c2ccc(Cl)cc2C(c2c(F)cccc2OC)=NC3)ccc1C(=O)O + Cc1cncc(-c2nc(NCCc3c[nH]c4ccccc34)c3ncn(C(C)C)c3n2)c1,46.5
2,Nc1ccccc1NC(=O)c1ccc(CNC(=O)OCc2cccnc2)cc1 + Cc1cncc(-c2nc(NCCc3c[nH]c4ccccc34)c3ncn(C(C)C)c3n2)c1,25.7
3,O=C(C=Cc1cccc(S(=O)(=O)Nc2ccccc2)c1)NO + Cc1cncc(-c2nc(NCCc3c[nH]c4ccccc34)c3ncn(C(C)C)c3n2)c1,33.4
4,O=C(c1cc(Cc2n[nH]c(=O)c3ccccc23)ccc1F)N1CCN(C(=O)C2CC2)CC1 + Cc1cncc(-c2nc(NCCc3c[nH]c4ccccc34)c3ncn(C(C)C)c3n2)c1,87.9

# Same assay, conditions: second compound 0.316 µM; first compound 10 µM; stronger effect = lower value
row,SMILES,"viability, T/C [%]"
1,COc1cc(Nc2ncc3c(n2)-c2ccc(Cl)cc2C(c2c(F)cccc2OC)=NC3)ccc1C(=O)O + Cc1cncc(-c2nc(NCCc3c[nH]c4ccccc34)c3ncn(C(C)C)c3n2)c1,33.2
2,Nc1ccccc1NC(=O)c1ccc(CNC(=O)OCc2cccnc2)cc1 + Cc1cncc(-c2nc(NCCc3c[nH]c4ccccc34)c3ncn(C(C)C)c3n2)c1,11.5
3,O=C(C=Cc1cccc(S(=O)(=O)Nc2ccccc2)c1)NO + Cc1cncc(-c2nc(NCCc3c[nH]c4ccccc34)c3ncn(C(C)C)c3n2)c1,3.8
4,O=C(c1cc(Cc2n[nH]c(=O)c3ccccc23)ccc1F)N1CCN(C(=O)C2CC2)CC1 + Cc1cncc(-c2nc(NCCc3c[nH]c4ccccc34)c3ncn(C(C)C)c3n2)c1,65.6

# Same assay, conditions: second compound 1 µM; first compound 0.000949 µM; stronger effect = lower value
row,SMILES,"viability, T/C [%]"
1,CC(C)CC(NC(=O)C(Cc1ccccc1)NC(=O)c1cnccn1)B(O)O (stereo not drawn) + Cc1cncc(-c2nc(NCCc3c[nH]c4ccccc34)c3ncn(C(C)C)c3n2)c1,82.3
2,CCc1c2c(nc3ccc(O)cc13)-c1cc3c(c(=O)n1C2)COC(=O)[C@]3(O)CC + Cc1cncc(-c2nc(NCCc3c[nH]c4ccccc34)c3ncn(C(C)C)c3n2)c1,57.6

# Same assay, conditions: second compound 1 µM; first compound 0.003 µM; stronger effect = lower value
row,SMILES,"viability, T/C [%]"
1,CC(C)CC(NC(=O)C(Cc1ccccc1)NC(=O)c1cnccn1)B(O)O (stereo not drawn) + Cc1cncc(-c2nc(NCCc3c[nH]c4ccccc34)c3ncn(C(C)C)c3n2)c1,95.5
